US6703388B2, “Nitrogen-containing tricyclic compounds and drugs containing the same” (Eisai Co., Ltd., priority 1996, dated 2004)

system: RBL-2H3 cells; assay: Inhibition of serotonin liberation from IgE-sensitized RBL-2H3 cells after antigen stimulation; format: cell-based, rat; details: Rattus norvegicus, RBL-2H3, read-out: IC50 (μM) in serotonin liberation from RBL-2H3 cells
Source text: IgE-sensitized RBL-2H3 cells (i.e., a cell line originating in rat cells) release and produce not only histamine and serotonin but also cytokines such as TNF α and prostaglandins which are inflammatory mediators after stimulation with IgE sepecific antibody. In this experimental system, inhibitory effects on various mediators release were examined by using serotonin as an indication.
The cells were beforehand labeled with [^3H]-labeled serotonin and, at the same time, sensitized with the IgE antibody. After incubating with the compounds of the present invention, the cells were stimulated with the specific antigen. Then the inhibitory activity of each compound was calculated from the amount of the [^3H]-labeled serotonin thus liberated into the medium and the amount of [^3H]-labeled serotonin liberated when no compound of the present invention was added.

Structure (SMILES) | IC50 [µM]
Cc1ccc2c(c1C)N(CCCNCc1cccc(C(=O)O)c1O)c1ccccc1[S+]2[O-] (stereo not drawn) [Example 31] | 0.5
Cc1ccc2c(c1C)N(CCN1CCC(O)(c3ccccc3)CC1)c1ccccc1[S+]2[O-] (stereo not drawn) [Example 192] | 5
Cc1ccc2c(c1C)N(CCN1CCC(O)(c3ccccc3)CC1)c1ccccc1S2(=O)=O [Example 199] | 10

same assay, conditions: Rattus norvegicus; [3H]-serotonin release, IgE-sensitized RBL-2H3 cells, antigen stimulation; read-out: IC50 (μM) in serotonin liberation from RBL-2H3 cells

Structure (SMILES) | IC50 [µM]
Cc1ccc2c(c1C)N(CCCN)c1ccccc1S2 [Example 1, 1,2-Dimethyl-10-(3-aminopropyl)phenothiazine] | 5
Cc1ccc2c(c1C)N(Cc1cccc(CN)n1)c1ccccc1S2 [Example 3] | 10
Cc1ccc2c(c1C)N(CCCN(CC(=O)O)Cc1ccccc1)c1ccccc1S2 [Example 5] | 5
Cc1ccc2c(c1C)N(Cc1cccc(CNCc3ccccc3)n1)c1ccccc1S2 [Example 6] | 10
Cc1ccc2c(c1C)N(Cc1cccc(CNCc3ncc[nH]3)n1)c1ccccc1S2 [Example 7] | 8
Cc1ccc2c(c1C)N(CCCN)c1cc(CCO)ccc1[S+]2[O-] (stereo not drawn) [Example 9] | < 1
Cc1ccc2c(c1C)N(CCCN)c1cc(Br)ccc1[S+]2[O-] (stereo not drawn) [Example 10] | 3
COc1ccc(O)c(CNCCCN2c3ccccc3[S+]([O-])c3ccc(C)c(C)c32)c1O (stereo not drawn) [Example 38] | 8
Cc1ccc2c(c1C)N(CCCNCc1cc(Br)cc(F)c1O)c1ccccc1[S+]2[O-] (stereo not drawn) [Example 40] | 5
Cc1ccc2c(c1C)N(CCCNCc1cc(Br)cc(Cl)c1O)c1ccccc1[S+]2[O-] (stereo not drawn) [Example 41] | 5
Cc1ccc2c(c1C)N(CCCNCC1CC1)c1ccccc1[S+]2[O-] (stereo not drawn) [Example 43] | 4
Cc1ccc2c(c1C)N(CCCNCc1ccccc1Cl)c1ccccc1[S+]2[O-] (stereo not drawn) [Example 52] | 3
Cc1ccc2c(c1C)N(CCCNCc1ccccc1C(=O)O)c1ccccc1[S+]2[O-] (stereo not drawn) [Example 55] | 8
Cc1ccc2c(c1C)N(CCCNCc1ccccc1OCC(=O)O)c1ccccc1[S+]2[O-] (stereo not drawn) [Example 56] | 3
Cc1ccc2c(c1C)N(CCCNCc1cccc(-c3nnn[nH]3)c1)c1ccccc1[S+]2[O-] (stereo not drawn) [Example 57] | 2
Cc1ccc2c(c1C)N(CCCNCc1ncc[nH]1)c1ccccc1[S+]2[O-] (stereo not drawn) [Example 63] | 3
Cc1ccc2c(c1C)N(CCCNCc1nc3ccccc3s1)c1ccccc1[S+]2[O-] (stereo not drawn) [Example 68] | 4
Cc1ccc2c(c1C)N(CCCNCc1ccccn1)c1ccccc1[S+]2[O-] (stereo not drawn) [Example 70] | 2
Cc1cccc(CNCCCN2c3ccccc3[S+]([O-])c3ccc(C)c(C)c32)n1 (stereo not drawn) [Example 71] | 8
Cc1ccc2c(c1C)N(CCCNCc1ncco1)c1ccccc1[S+]2[O-] (stereo not drawn) [Example 72] | 8
Cc1ccc2c(c1C)N(CCCNCc1[nH]cnc1C)c1ccccc1[S+]2[O-] (stereo not drawn) [Example 74] | 2

Structure (SMILES) | IC50 [µM]
Cc1ccc2c(c1C)N(CCCNCc1nccnc1Cl)c1ccccc1[S+]2[O-] (stereo not drawn) [Example 75] | 6
CCOC(=O)/C(C)=C/c1cc(OC)c(CNCCCN2c3ccccc3[S+]([O-])c3ccc(C)c(C)c32)s1 (stereo not drawn) [Example 76] | 3
COc1ncc(CNCCCN2c3ccccc3[S+]([O-])c3ccc(C)c(C)c32)c(OC)n1 (stereo not drawn) [Example 78] | 4
COc1cc(C(N)=O)sc1CNCCCN1c2ccccc2[S+]([O-])c2ccc(C)c(C)c21 (stereo not drawn) [Example 79] | 2
Cc1ccc2c(c1C)N(CCCNCc1ccccc1)c1ccc(C#N)cc1[S+]2[O-] (stereo not drawn) [Example 88] | 1
COc1ccsc1CNCCCN1c2ccc(C#N)cc2[S+]([O-])c2ccc(C)c(C)c21 (stereo not drawn) [Example 89] | 2
COC(=O)c1cccc2c1[S+]([O-])c1ccc(C)c(C)c1N2CCCNCc1ccccc1 (stereo not drawn) [Example 91] | 5
Cc1ccc2c(c1C)N(CCCNCc1ccc(Cl)cc1Cl)c1cc(CCO)ccc1[S+]2[O-] (stereo not drawn) [Example 93] | 3
Cc1ccc2c(c1C)N(CCCNCc1ccc(F)cc1F)c1cc(CCO)ccc1[S+]2[O-] (stereo not drawn) [Example 95] | 3
Cc1ccc2c(c1C)N(CCCNCc1ccccc1)c1cc(-c3nn[nH]n3)ccc1[S+]2[O-] (stereo not drawn) [Example 98] | 0.5
COc1cc2c(c(C)c1C)N(CCCNCc1ccccc1)c1ccccc1[S+]2[O-] (stereo not drawn) [Example 99] | 5
COc1ccsc1CNCCCN1c2ccccc2[S+]([O-])c2c(C)cc(C)c(C)c21 (stereo not drawn) [Example 101] | 5
Cc1ccc2c(c1C)N(CCCN1CCOCC1)c1ccccc1[S+]2[O-] (stereo not drawn) [Example 103, 1,2-Dimethyl-10-[3-(4-morpholino)propyl]phenothiazine-5Oxide] | < 3
Cc1ccc2c(c1C)N(CCCN1CCC(O)CC1)c1ccccc1[S+]2[O-] (stereo not drawn) [Example 106] | 2
Cc1ccc2c(c1C)N(CCCN1CCC(N(C)C)CC1)c1ccccc1[S+]2[O-] (stereo not drawn) [Example 107] | 2
Cc1ccc2c(c1C)N(CCCN(CC(=O)O)Cc1ccccc1)c1ccccc1[S+]2[O-] (stereo not drawn) [Example 109] | 3
Cc1ccc2c(c1C)N(CCCN1CCN(Cc3ccccc3)C(C(=O)O)C1)c1ccccc1[S+]2[O-] (stereo not drawn) [Example 110] | 1
Cc1ccc2c(c1C)N(CCCN1CCN(C(C(=O)O)c3ccccc3)CC1)c1ccccc1[S+]2[O-] (stereo not drawn) [Example 111] | 2
Cc1ccc2c(c1C)N(CCCN1CCN(Cc3ccccn3)CC1)c1ccccc1[S+]2[O-] (stereo not drawn) [Example 112] | 1
Cc1ccc2c(c1C)N(CCCNc1ccccc1O)c1ccccc1[S+]2[O-] (stereo not drawn) [Example 116] | 10
Cc1ccc2c(c1C)N(CCCN1CCN(C(CO)c3ccccc3)CC1)c1ccccc1[S+]2[O-] (stereo not drawn) [Example 117] | 2

Structure (SMILES) | IC50 [µM]
Cc1ccc2c(c1C)N(CCCNc1nc[nH]n1)c1ccccc1[S+]2[O-] (stereo not drawn) [Example 118] | 10
Cc1ccc2c(c1C)N(CCCn1cnc(N)n1)c1ccccc1[S+]2[O-] (stereo not drawn) [Example 119] | 6
Cc1ccc2c(c1C)N(CCCNCc1nccs1)c1ccccc1[S+]2[O-] (stereo not drawn) [Example 120] | 3
Cc1ccc2c(c1C)N(Cc1ccc(CN3CCC(C(=O)O)CC3)cc1)c1ccccc1[S+]2[O-] (stereo not drawn) [Example 121] | 1
C#CCNCCCN1c2ccccc2[S+]([O-])c2ccc(C)c(C)c21 (stereo not drawn) [Example 126] | 3
Cc1ccc2c(c1C)N(CCCNCC#N)c1ccccc1[S+]2[O-] (stereo not drawn) [Example 130] | 3
Cc1ccc2c(c1C)N(CCCN(CC#N)CC#N)c1ccccc1[S+]2[O-] (stereo not drawn) [Example 131] | 3
Cc1ccc2c(c1C)N(CCCNC(C(=O)O)c1ccccc1)c1ccccc1[S+]2[O-] (stereo not drawn) [Example 133] | 1
Cc1ccc2c(c1C)N(CCCN(CC(=O)O)Cc1ccccc1O)c1ccccc1[S+]2[O-] (stereo not drawn) [Example 135] | 2
Cc1ccc2c(c1C)N(CCNCc1cc(C)c(O)c(C)c1)c1ccccc1[S+]2[O-] (stereo not drawn) [Example 148] | 8
COc1cc(CNCCN2c3ccccc3[S+]([O-])c3ccc(C)c(C)c32)cc(OC)c1O (stereo not drawn) [Example 149] | 8
Cc1ccc2c(c1C)N(CCNCc1ccc(Cl)c(O)c1Cl)c1ccccc1[S+]2[O-] (stereo not drawn) [Example 153] | 6
COCOc1cccnc1CNCCN1c2ccccc2[S+]([O-])c2ccc(C)c(C)c21 (stereo not drawn) [Example 160] | 2
Cc1ccc2c(c1C)N(CCCN(C)Cc1cc(Cl)cc(Cl)c1O)c1ccccc1[S+]2[O-] (stereo not drawn) [Example 172] | 3
Cc1ccc2c(c1C)N(CCCN(C)Cc1ccccc1O)c1cc(Cl)ccc1[S+]2[O-] (stereo not drawn) [Example 186] | 10
Cc1ccc2c(c1C)N(CCN1CCN(Cc3ccccc3)CC1)c1ccccc1[S+]2[O-] (stereo not drawn) [Example 191, 1,2-Dimethyl-10-[2-(4-benzylpiperazin-1-yl)ethyl]-phenothiazine-5-oxide] | 3
Cc1ccc2c(c1C)N(CCNc1ccccc1O)c1ccccc1[S+]2[O-] (stereo not drawn) [Example 194] | 10
Cc1ccc2c(c1C)N(CCCN)c1cc(Br)ccc1S2(=O)=O [Example 197] | 8
C=C1c2ccccc2N(CCCNCc2ccccc2)c2c1ccc(C)c2C [Example 206, 3,4-Dimethyl-9-methylene-10-(3-benzylaminopropyl)acridan] | 15
CCC/C=C1/c2ccccc2N(CCCNCc2ccccc2)c2c1ccc(C)c2C [Example 207] | 15

system: human basophils; assay: Inhibition of mediator (histamine, peptide leukotriene) liberation from human basophils stimulated with mite antigen; format: cell-based; details: histamine, enzyme immunoassay, read-out: IC50 (μM) in mediator liberation from human basophils: histamine
Procedure: 6 ml of 6% dextran (for separating leukocytes, having a high molecular weight) was added to 20 ml of heparinized blood. After stirring well, the resulting mixture was allowed to stand at 37° C. for 30 min and thus erythrocytes were precipitated. The upper layer was taken up and phosphate buffered saline (D-PBS) was added thereto followed by centrifugation at 185 g for 8 minutes to give a crude leukocyte fraction. These cells were subjected to hypotonic hematolysis and then suspended in D-PBS(+) containing 0.1%-BSA. The resulting suspension was used in the subsequent experiment as the leukocyte fraction containing basophils. 0.4 ml of this cell suspension was preliminarily heated to 37° C. for 5 min and then 0.05 ml of a specimen solution was added thereto followed by a pretreatment at 37° C. for 15 min. Next, 0.05 ml of a mite antigen solution was added thereto to induce an antigen-antibody reaction. After 10 min, the reaction was ceased by ice-cooling. Then the reaction mixture was centrifuged at 185 g for 10 min and histamine and peptide leukotrienes in the resulting supernatant were determined by using enzyme immunoassay kits. From the results of the assay, the activities of the acridone derivatives of inhibiting the liberation of histamine and peptide leukotriene were determined.

Structure (SMILES) | IC50 [µM]
Cc1ccc2c(c1C)N(CCCN(C)Cc1cccc(Cl)c1O)c1ccccc1[S+]2[O-] (stereo not drawn) [Example 167] | 10
Cc1ccc2c(c1C)N(CCCN(C)Cc1ccccc1O)c1cc(C(F)(F)F)ccc1[S+]2[O-] (stereo not drawn) [Example 187] | 10 to 30

same assay, conditions: peptide leukotriene, enzyme immunoassay, read-out: IC50 (μM) in mediator liberation from human basophils: leukotriene

Structure (SMILES) | IC50 [µM]
Cc1ccc2c(c1C)N(CCCN(C)Cc1cccc(Cl)c1O)c1ccccc1[S+]2[O-] (stereo not drawn) [Example 167] | 3
Cc1ccc2c(c1C)N(CCCN(C)Cc1ccccc1O)c1cc(C(F)(F)F)ccc1[S+]2[O-] (stereo not drawn) [Example 187] | 3 to 10
